2 molecules from ChEMBL document CHEMBL1138868, “Interpreting steep dose-response curves in early inhibitor discovery” (J Med Chem, 2006) can be followed below.

Test [1] deals with T1, Beta-lactamase (Escherichia coli K-12, UniProt P00811). The test can be described thus: Inhibition of 1 nM AmpC beta lactamase.
Test [2] deals with T1, Beta-lactamase. Kind of test: Inhibition of 10 nM AmpC beta lactamase.
Test [3] addresses T1, Beta-lactamase. Kind of test: Inhibition of 20 nM AmpC beta lactamase.
Test [4] addresses T1, Beta-lactamase. Kind of test: Inhibition of 30 nM AmpC beta lactamase.

T1 sequence (P00811 whole entry): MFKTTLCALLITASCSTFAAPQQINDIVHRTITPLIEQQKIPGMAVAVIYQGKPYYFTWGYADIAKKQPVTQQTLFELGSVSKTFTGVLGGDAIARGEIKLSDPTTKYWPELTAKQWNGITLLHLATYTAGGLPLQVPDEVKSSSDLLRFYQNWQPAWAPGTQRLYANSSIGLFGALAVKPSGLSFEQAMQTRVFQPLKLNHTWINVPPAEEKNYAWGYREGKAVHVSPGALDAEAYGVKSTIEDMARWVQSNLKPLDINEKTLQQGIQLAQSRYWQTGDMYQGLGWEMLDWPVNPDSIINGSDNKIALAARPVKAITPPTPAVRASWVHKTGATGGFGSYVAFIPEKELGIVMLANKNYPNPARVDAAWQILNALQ

By IC50 is commonly meant the point on the concentration scale where inhibition reaches its midpoint. Take `O=C1OC(c2ccc(O)cc2)(c2ccc(O)cc2)c2c(I)c(I)c(I)c(I)c21` [TETRAIODOPHENOLPHTHALEINE]: the figures for the half-maximal inhibitory concentration (IC50) in test [1], in test [2] and in test [3] were 3.8 µM, 20 µM and 19 µM, respectively.
As for `CC(=O)c1c(O)c(C)c(O)c(Cc2c(O)c3c(c(C(=O)/C=C/c4ccccc4)c2O)OC(C)(C)C=C3)c1O` [ROTTLERIN], the values for the 50% inhibitory concentration (IC50) in test [1], in test [2] and in test [4] were 1.8 µM, 21 µM and 76 µM, respectively.
